Here are results for 29 compounds from patent US12630551B2, “Endocyclic pyrimidinone compounds, and preparation methods, compositions and use thereof” (NEUSCO BIOTECH LIMITED, priority 2020, dated 2026).

The target of test [1] is T1, recombinant human Lp-PLA2 enzyme (Homo sapiens, UniProt Q13093).
T1 sequence (Q13093 22-441): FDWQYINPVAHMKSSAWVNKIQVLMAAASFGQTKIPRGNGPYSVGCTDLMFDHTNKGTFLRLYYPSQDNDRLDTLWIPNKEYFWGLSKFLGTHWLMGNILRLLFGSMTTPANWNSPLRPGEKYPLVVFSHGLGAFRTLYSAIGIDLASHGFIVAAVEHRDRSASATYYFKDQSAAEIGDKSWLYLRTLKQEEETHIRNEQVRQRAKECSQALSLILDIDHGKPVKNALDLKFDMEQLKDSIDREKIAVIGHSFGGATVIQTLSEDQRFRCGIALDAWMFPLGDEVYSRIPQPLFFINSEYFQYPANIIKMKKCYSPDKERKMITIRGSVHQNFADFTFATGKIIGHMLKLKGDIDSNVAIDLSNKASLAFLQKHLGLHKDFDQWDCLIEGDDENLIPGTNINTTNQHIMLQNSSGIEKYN
In words: Recombinant human Lp-PLA2 (rhLp-PLA2) assay (PED6 assay). It is filed as biochemical. The note with it: PED6 substrate, enzyme 4 nM or 110 pM, 30-min pre-incubation, fluorescence ex 480/em 540; for IC50: read-out: rhLp-PLA2 (pIC50) (converted). As for the experimental part:
(1) Recombinant Human Lp-PLA2 (rhLp-PLA2) Assay (Also Known as PED6 Assay) PED6 is a fluorescently labeled phospholipid, which could be purchased directly from Invitogene or Molecular Probes. PED6 has a fluorescence quenching […] and a Bodipy fluorescein (FL) group at the sn2 position. Once cleaved by an Lp-PLA2 enzyme, it will release the FL group, resulting in enhanced fluorescence. […] The plate was centrifuged at 500 rpm for 10 seconds.

Test [2] deals with T2, Lp-PLA2 enzyme in human plasma (Homo sapiens, UniProt Q13093).
T2 construct: from tissue; host or cells: mixed (pooled) human plasma
T2 sequence (Q13093 22-441): T1 sequence (Q13093 22-441)
The test can be described thus: Human plasma Lp-PLA2 assay (Thio-PAF assay). It is filed as biochemical. The note with it: mixed human plasma, 2-thio-PAF substrate, CPM, 30-min pre-incubation, fluorescence ex 380/em 485; for IC50: read-out: Thio-PAF (pIC50) (converted). The procedure:
(2) Human Plasma Lp-PLA2 Assay (Also Known as Thio-PAF Assay) The human plasma assay was conducted using the […] analog of PAF (phosphatidylcholine). After hydrolysis, it would generate phospholipids containing free sulfhydryl groups, which would be subjected to Michael addition with CPM to generate fluorescence-enhancing maleimide. Continuous quantitative analysis of thiol could be conducted by detecting the fluorescence intensity. This assay can be used to detect the inhibitory activity of the Lp-PLA2 inhibitor on the Lp-PLA2 enzyme in human plasma. […] The plate was centrifuged at 500 rpm for 10 seconds. […] Two minutes later, the reaction was quenched with 5 μl of 5% trifluoroacetic acid.

Take `O=c1nc(OCc2ccc(F)cc2F)cc2n1CC1CCCN2C1` (stereo not shown) [Compound 2]: the IC50 was 2.51 nM in test [1] and 31.6 nM in test [2].
On the same counts, the results for `O=c1nc(OCc2cc(F)c(F)cc2F)cc2n1CC1CCCN2C1` (stereo not shown) [Compound 3] are 31.6 nM and 316 nM.
Consider `O=c1nc(OCc2cc(F)cc(F)c2)cc2n1CC1CCCN2C1` (stereo not shown) [Compound 4], for which the IC50 was 3.16 nM in test [1] and 39.8 nM in test [2].
The corresponding values for `O=c1nc(OCc2cc(F)c(Oc3ccnc(C(F)(F)F)c3)c(F)c2)cc2n1CC1CCCN2C1` (stereo not shown) [Compound 5] are 0.0316 nM and 3.16 nM.
On to `Cc1cc(Oc2c(F)cc(COc3cc4n(c(=O)n3)CC3CCCN4C3)cc2F)ccn1` (stereo not shown) [Compound 6], for which the IC50 in test [1] is 0.0631 nM; in test [2], 6.31 nM.
On the same counts, the results for `Cc1ccc(Oc2c(F)cc(COc3cc4n(c(=O)n3)CC3CCCN4C3)cc2F)cn1` (stereo not shown) [Compound 7] are 0.0794 nM and 7.94 nM.
Regarding `Cc1ncc(Oc2c(F)cc(COc3cc4n(c(=O)n3)CC3CCCN4C3)cc2F)cn1` (stereo not shown) [Compound 8], the IC50 in test [1] is 0.316 nM; in test [2], 15.8 nM.
The corresponding values for `O=c1nc(OCc2cc(F)c(Oc3cnc(C(F)(F)F)nc3)c(F)c2)cc2n1CC1CCCN2C1` (stereo not shown) [Compound 9] are 0.1 nM and 10 nM.
On the same counts, the results for `O=c1nc(OCc2cc(F)c(Oc3cccc(C(F)(F)F)c3)c(F)c2)cc2n1CC1CCCN2C1` (stereo not shown) [Compound 10] are 0.126 nM and 10 nM.
The corresponding values for `Cc1cc(Oc2c(F)cc(COc3cc4n(c(=O)n3)CC3CCCN4C3)cc2F)ccc1Cl` (stereo not shown) [Compound 11] are 0.0794 nM and 7.94 nM.
Consider `O=c1nc(OCc2cc(F)c(Oc3cccc(OC(F)(F)F)c3)c(F)c2)cc2n1CC1CCCN2C1` (stereo not shown) [Compound 12], for which the IC50 in test [1] is 0.316 nM; in test [2], 15.8 nM.
On the same counts, the results for `O=c1nc(OCc2cc(F)c(Oc3ccc(C(F)(F)F)cc3)c(F)c2)cc2n1CC1CCCN2C1` (stereo not shown) [Compound 13] are 0.0631 nM and 7.94 nM.
The corresponding values for `O=c1nc(OCc2cc(F)c(Oc3ccc(Cl)c(C(F)(F)F)c3)c(F)c2)cc2n1CC1CCCN2C1` (stereo not shown) [Compound 14] are 0.0398 nM and 6.31 nM.
On the same counts, the results for `O=c1nc(OCc2cc(F)c(Oc3ccc(OC(F)(F)F)c(Cl)c3)c(F)c2)cc2n1CC1CCCN2C1` (stereo not shown) [Compound 15] are 0.2 nM and 12.6 nM.
In the case of `O=c1nc(OCc2cc(F)c(Oc3ccc(C(F)(F)F)c(Cl)c3)c(F)c2)cc2n1CC1CCCN2C1` (stereo not shown) [Compound 16], the IC50 was 0.0794 nM in test [1] and 7.94 nM in test [2].
For the compound `Cc1ccc(Oc2c(F)cc(COc3cc4n(c(=O)n3)C[C@H]3CCCN4C3)cc2F)cn1` [Compound 18], the IC50 was 0.0794 nM in test [1] and 7.94 nM in test [2].
For `O=c1nc(OCc2cc(F)c(Oc3cccc(C(F)(F)F)c3)c(F)c2)cc2n1C[C@H]1CCCN2C1` [Compound 20], the results for the IC50 in test [1] and in test [2] were 0.0316 nM and 3.16 nM, respectively.
On the same counts, the results for `O=c1nc(OCc2cc(F)cc(F)c2)cc2n1C[C@H]1CCCN2C1` [Compound 21] are 3.16 nM and 39.8 nM.
On the same counts, the results for `O=c1nc(OCc2cc(F)c(F)cc2F)cc2n1C[C@H]1CCCN2C1` [Compound 22] are 31.6 nM and 316 nM.
On the same counts, the results for `Cc1ccc(Oc2c(F)cc(COc3cc4n(c(=O)n3)C[C@@H]3CCCN4C3)cc2F)cn1` [Compound 24] are 0.1 nM and 7.94 nM.
In the case of `O=c1nc(OCc2cc(F)c(Oc3cccc(C(F)(F)F)c3)c(F)c2)cc2n1C[C@@H]1CCCN2C1` [Compound 26], the IC50 was 0.0398 nM in test [1] and 3.98 nM in test [2].
As to `O=c1nc(OCc2cc(F)cc(F)c2)cc2n1C[C@H]1CCCN2C1` [Compound 27], the “rhLp-PLA2 (pIC50)” value in test [1] stood at 8.5. Besides, in test [2], the IC50 is 50.1 nM.
Regarding `O=c1nc(OCc2cc(F)c(F)cc2F)cc2n1C[C@H]1CCCN2C1` [Compound 28], the IC50 in test [1] was 39.8 nM. In addition, the “Thio-PAF (pIC50)” value in test [2] worked out at 6.5.
With `Cc1ccc(Oc2c(F)cc(COc3cc4n(c(=O)n3)C[C@@H]3CN4CCO3)cc2F)cn1` [Compound 30], the IC50 in test [1] is 0.158 nM; in test [2], 10 nM.
Consider `O=c1nc(OCc2cc(F)cc(F)c2)cc2n1C[C@@H]1CN2CCO1` [Compound 33], for which the values for the IC50 in test [1] and in test [2] were 3.98 nM and 79.4 nM, respectively.
On the same counts, the results for `O=c1nc(OCc2cc(F)c(F)cc2F)cc2n1C[C@@H]1CN2CCO1` [Compound 34] are 63.1 nM and 501 nM.
Take `Cc1ccc(Oc2c(F)cc(COc3cc4n(c(=O)n3)C[C@H]3CN4CCO3)cc2F)cn1` [Compound 36]: the IC50 was 0.126 nM in test [1] and 12.6 nM in test [2].
Take `O=c1nc(OCc2cc(F)cc(F)c2)cc2n1C[C@@H]1CN2CCO1` [Compound 39]: the “rhLp-PLA2 (pIC50)” value in test [1] was 8.4. Further, the IC50 in test [2] was 100 nM.
Take `O=c1nc(OCc2cc(F)c(F)cc2F)cc2n1C[C@@H]1CN2CCO1` [Compound 40]: the IC50 in test [1] was 50.1 nM. In addition, the “Thio-PAF (pIC50)” value in test [2] was 6.3.
